One experiment has as its target PDE10 (UniProt Q9Y233). Description: PDE10 enzyme inhibition, IMAP TR-FRET assay (MPDE10A7 Enzyme Activity and Inhibition). The class given is biochemical. The following applies: IC50 class against PDE10; read-out: IC50. The method in brief: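 IMAP TR-FRET read-out of PDE10 hydrolysis of fluorescein-cAMP or -cGMP (60 min, room temperature), after a 30 min compound-enzyme preincubation. Enzyme source was PDE10A or tissue homogenate. Averaged IC50s are reported as five range classes.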
By IC50 is commonly meant the concentration that gives 50% inhibition. For the molecule `CC(F)C(=O)N1CCC(c2nccnc2Oc2ccc(C(=O)c3nc4ccccc4[nH]3)cc2)CC1` (centres unmarked) [Example 234, 1-(4-(3-(4-(1H-benzo[d]imidazole-2-carbonyl)phenoxy)pyrazin-2-yl)piperidin-1-yl)-2-fluoropropan-1-one], the IC50 was under 25 nM.

Turning to `COC1CC=C(c2nccnc2Oc2ccc(C(=O)c3nc4ccccc4[nH]3)cc2)CC1` (centres unmarked) [Example 187, 1H-Benzimidazol-2-yl(4-((3-(4-methoxy-1-cyclohexen-1-yl)-2-pyrazinyl)oxy)phenyl)methanone], the IC50 is under 25 nM.

In the case of `COc1ccccc1-c1nccnc1Oc1ccc(C(=O)c2nc3ccccc3[nH]2)cc1` [Example 114, (1H-benzo[d]imidazol-2-yl)(4-(3-(2-methoxyphenyl)pyrazin-2-yloxy)phenyl)methanone], the IC50 fell in the range of 25 to 100 nM.

Consider `COc1ncccc1-c1nccnc1Oc1ccc(C(=O)c2nc3cc(F)ccc3[nH]2)cc1` [Example 117, (5-fluoro-1H-benzo[d]imidazol-2-yl)(4-(3-(2-methoxypyridin-3-yl)pyrazin-2-yloxy)phenyl)methanone], for which the IC50 fell in the range of 25 to 100 nM.

Regarding `CN(C)CCOc1nccnc1Oc1ccc(C(=O)c2nc3ccccc3[nH]2)cc1` [Example 174, (1H-benzo[d]imidazol-2-yl)(4-(3-(2-(dimethylamino)ethoxy)pyrazin-2-yloxy)phenyl)methanone], the IC50 fell in the range of 100 to 250 nM.

For `COc1nccnc1Oc1ccc(C(=O)c2nc3ccccc3[nH]2)cc1` [Example 160, (1H-benzo[d]imidazol-2-yl)(4-(3-methoxypyrazin-2-yloxy)phenyl)methanone], the IC50 was in the range of 1000 to 5000 nM.

Consider “(6-fluoro-1-methyl-1H-benzo[d]imidazol-2-yl)(4-(3-(tetrahydro-2H-pyran-4-yl)pyrazin-2-yloxy)phenyl)methanone and (5-fluoro-1-methyl-1H-benzo[d]imidazol-2-yl)(4-(3-(tetrahydro-2H-pyran-4-yl)pyrazin-2-yloxy)phenyl)methanone [Example 185]”, for which the IC50 is under 25 nM.

Consider `O=C(c1ccc(Oc2nccnc2OCc2ccncc2)cc1)c1nc2ccccc2[nH]1` [Example 176, (1H-benzo[d]imidazol-2-yl)(4-(3-(pyridin-4-ylmethoxy)pyrazin-2-yloxy)phenyl)methanone], for which the IC50 fell in the range of 100 to 250 nM.

`CC(C)COc1nccnc1Oc1ccc(C(=O)c2nc3ccccc3[nH]2)cc1` [Example 162, (1H-benzo[d]imidazol-2-yl)(4-(3-isobutoxypyrazin-2-yloxy)phenyl)methanone]: the IC50 was in the range of 1000 to 5000 nM.

As for `O=C(c1ccc(Oc2nccnc2C2CCOCC2)cc1)c1nc2ncccc2[nH]1` [Example 182, (1H-imidazo[4,5-b]pyridin-2-yl)(4-(3-(tetrahydro-2H-pyran-4-yl)pyrazin-2-yloxy)phenyl)methanone], the IC50 was under 25 nM.

As to `Cn1c(C(=O)c2ccc(Oc3nccnc3C3CCOCC3)cc2)nc2ccccc21` [Example 184, (1-methyl-1H-benzo[d]imidazol-2-yl)(4-(3-(tetrahydro-2H-pyran-4-yl)pyrazin-2-yloxy)phenyl)methanone], the IC50 is under 25 nM.

On to `COc1cnccc1-c1nccnc1Oc1ccc(Nc2nc3ccccc3s2)cc1` [Example 149, N-(4-(3-(3-methoxypyridin-4-yl)pyrazin-2-yloxy)phenyl)benzo[d]thiazol-2-amine], for which the IC50 was under 25 nM.

With `c1ccc2sc(Nc3ccc(Oc4nccnc4C4CCCOC4)cc3)nc2c1` (centres unmarked) [Example 193, N-(4-(3-(tetrahydro-2H-pyran-3-yl)pyrazin-2-yloxy)phenyl)benzo[d]thiazol-2-amine], the IC50 is under 25 nM.

On to `O=C1CCCC(c2nccnc2Oc2ccc(C(=O)c3nc4ccccc4[nH]3)cc2)C1` (racemic) [Example 210, (rac)-3-(3-(4-(1H-benzo[d]imidazole-2-carbonyl)phenoxy)pyrazin-2-yl)cyclohexanone], for which the 50% inhibitory concentration (IC50) is under 25 nM.

As to `c1ccc2sc(Nc3ccc(Oc4nccnc4N4CCc5[nH]cnc5C4)cc3)nc2c1` [Example 80, N-(4-(3-(6,7-dihydro-1H-imidazo[4,5-c]pyridin-5(4H)-yl)pyrazin-2-yloxy)phenyl)-benzo[d]thiazol-2-amine], the IC50 is 25 to 100 nM.

As for `CN(C)CC(=O)N1CCC(c2nccnc2Oc2ccc(Nc3nc4ccccc4s3)cc2)CC1` [Example 246, 1-(4-(3-(4-(benzo[d]thiazol-2-ylamino)phenoxy)pyrazin-2-yl)piperidin-1-yl)-2-(dimethylamino) ethanone], the IC50 is under 25 nM.

In the case of `COc1ncc(F)cc1-c1nccnc1Oc1ccc(C(=O)c2nc3ccccc3[nH]2)cc1` [Example 116, (1H-benzo[d]imidazol-2-yl)(4-(3-(5-fluoro-2-methoxypyridin-3-yl)pyrazin-2-yloxy)phenyl)methanone], the IC50 is under 25 nM.

Consider `N#Cc1ccc(-c2nccnc2Oc2ccc(C(=O)c3nc4ccccc4[nH]3)cc2)cc1` [Example 108, 4-(3-(4-(1H-benzo[d]imidazole-2-carbonyl)phenoxy)pyrazin-2-yl)benzonitrile], for which the IC50 is under 25 nM.

As for `O=C(c1ccc(Oc2nccnc2OCC(F)(F)F)cc1)c1nc2ccccc2[nH]1` [Example 164], the IC50 lay within 250 to 1000 nM.

With `c1cncc(-c2nccnc2Oc2ccc(Nc3nc4ccccc4s3)cc2)c1` [Example 148, N-(4-(3-(pyridin-3-yl)pyrazin-2-yloxy)phenyl)benzo[d]thiazol-2-amine], the concentration for half-maximal inhibition (IC50) is under 25 nM.

The experiment is the same for the next values; noted with them: PDE10 enzyme inhibition; average IC50 data for each compound; read-out: Average IC50.
On to `O[C@@H]1CCC[C@H](c2nccnc2Oc2ccc(Nc3nc4ccccc4s3)cc2)C1` (stereo in doubt), for which the half-inhibitory concentration (IC50) worked out at 2.32 nM.

Consider `N#Cc1ccc(-c2nccnc2Oc2ccc(C(=O)c3nc4ccccc4[nH]3)cc2)cc1` [drawing 734], for which the IC50 was found to be 17.5 nM.

Regarding `O=C(c1ccc(Oc2nccnc2OCc2ccncc2)cc1)c1nc2ccccc2[nH]1` [drawing 859], the IC50 amounted to 14 nM.

`C[C@@H](F)C(=O)N1CCC(c2nccnc2Oc2ccc(C(=O)c3nc4ccccc4[nH]3)cc2)CC1` [drawing 976]: the IC50 came out at 0.005 nM.

In the case of `CC(C)(O)[C@@H]1CCCN1c1nccnc1Oc1ccc(Nc2nc3ccccc3s2)cc1` [drawing 737], the IC50 worked out at 60 nM.

`FC1(c2nccnc2Oc2ccc(Nc3nc4ccccc4s3)cc2)CCOCC1` [drawing 927]: the IC50 stood at 12.2 nM.

With `O=C(c1ccc(Oc2nccnc2C2=CCOCC2)cc1)c1nc2ccccc2[nH]1`, the IC50 amounted to 3.36 nM.

As to `COc1ncccc1-c1nccnc1Oc1ccc(Nc2nc3ccccc3s2)cc1` [drawing 886], the IC50 stood at 3.67 nM.

Consider `COC(=O)c1ccc(-c2nccnc2Oc2ccc(C(=O)c3nc4ccccc4[nH]3)cc2)cc1` [drawing 758], for which the IC50 amounted to 33 nM.

For `CC(=O)N1CC[C@@H](c2nccnc2Oc2ccc(C(=O)c3nc4ccccc4[nH]3)cc2)C1` (stereo in doubt), the IC50 came out at 7.63 nM.

Take `O=C(c1ccc(Oc2nccnc2Oc2cccnc2)cc1)c1nc2ccccc2[nH]1` [drawing 851]: the IC50 came to 51.5 nM.

`CC(C)(C)OC(=O)N1CCC(CO)(c2nccnc2Oc2ccc(Nc3nc4ccccc4s3)cc2)CC1` [drawing 875]: the IC50 worked out at 251 nM.

Regarding `Fc1cc(Oc2nccnc2C2CCOCC2)ccc1Nc1nc2ccccc2s1` [drawing 877], the IC50 was 2.64 nM.

As for `Fc1cccc2nc(Nc3ccc(Oc4cnccn4)cc3)sc12` [drawing 880], the IC50 came out at 803 nM.

On to `O=C(c1ccc(Oc2nccnc2C(=O)NC2(Cc3ccccc3)CC2)cc1)c1nc2ccccc2[nH]1` [drawing 822], for which the IC50 was found to be 0.575 nM.

For `O=C1CCC[C@@H](c2nccnc2Oc2ccc(Nc3nc4ccccc4s3)cc2)C1` [drawing 1002], the IC50 was found to be 1.12 nM.

Consider `COc1ncc(F)cc1-c1nccnc1Oc1ccc(C(=O)c2nc3ccccc3[nH]2)cc1` [drawing 942], for which the half-inhibitory concentration (IC50) turned out to be 2.95 nM.

`O=C(c1ccc(Oc2nccnc2-c2ccnc(C(F)(F)F)c2)cc1)c1nc2ccccc2[nH]1` [drawing 753]: the IC50 came out at 242 nM.

For `N#Cc1ccc(-c2nccnc2Oc2ccc(Nc3nc4ccccc4s3)cc2)cn1` [drawing 777], the IC50 came to 63.8 nM.

Consider `O=C(c1ccc(Oc2nccnc2-c2cccnc2)cc1)c1nc2ccccc2[nH]1` [drawing 754], for which the IC50 was determined as 8.05 nM.

Turning to `O=C(c1ccc(Oc2nccnc2N2CC[C@@H](CO)C2)cc1)c1nc2ccccc2[nH]1`, the IC50 was found to be 2.05 nM.

With `OCc1ccc(-c2nccnc2Oc2ccc(Nc3nc4ccccc4s3)cc2)cn1` [drawing 804], the half-inhibitory concentration (IC50) was determined as 4.12 nM.

Regarding `COc1nccnc1Oc1ccc(C(=O)c2nc3ccccc3[nH]2)cc1` [drawing 843], the concentration for half-maximal inhibition (IC50) amounted to 43.6 nM.

Take `COc1ncccc1-c1nccnc1Oc1ccc(Nc2nc3cc(F)ccc3s2)cc1` [drawing 964]: the IC50 came to 49.7 nM.

With `CC1(O)CCN(c2nccnc2Oc2ccc(Nc3nc4ccccc4s3)cc2)CC1` [drawing 742], the IC50 turned out to be 8.08 nM.

Regarding `Fc1ccc2nc(Nc3ccc(Oc4nccnc4Cl)cc3)sc2c1` [drawing 833], the IC50 stood at 538 nM.

As to `c1ccc2sc(Nc3ccc(Oc4nccnc4[C@H]4CCCOC4)cc3)nc2c1` (stereo in doubt), the IC50 stood at 2.43 nM.

The experiment is the same for the next values; noted with them: PDE10 enzyme inhibition; chiral compounds separated from racemic mixtures; read-out: IC50.
Regarding `O=C(c1ccc(Oc2nccnc2[C@@H]2CCC[C@@H](O)C2)cc1)c1nc2ccccc2[nH]1` (stereo in doubt) [Example 274, (1H-benzo[d]imidazol-2-yl)(4-(3-((1R,3R)-3-hydroxycyclohexyl)pyrazin-2-yloxy)phenyl) methanone], the IC50 was under 25 nM.

Turning to `O=C(c1ccc(Oc2nccnc2[C@H]2CCC[C@H](O)C2)cc1)c1nc2ccccc2[nH]1` [Example 273, (1H-benzo[d]imidazol-2-yl)(4-(3-((1S,3S)-3-hydroxycyclohexyl)pyrazin-2-yloxy)phenyl) methanone], the half-inhibitory concentration (IC50) is under 25 nM.

Turning to `C[C@@H](F)C(=O)N1CCC(c2nccnc2Oc2ccc(C(=O)c3nc4ccccc4[nH]3)cc2)CC1` [Example 277, (R)-1-(4-(3-(4-(1H-benzo[d]imidazole-2-carbonyl)phenoxy)pyrazin-2-yl)piperidin-1-yl)-2-fluoropropan-1-one], the IC50 was under 25 nM.
